Assay results: patent publication US20260327242A1, “Platform and Scaffold for FAP Targeting Agents” (Erasmus University Medical Center Rotterdam, priority 2022, published 2026)

Experiments:
FAP [1] = conditions: cited from earlier work
[2] = vis-à-vis FAPI-04; cited from earlier work
FAP [3] = biological target: T1, FAP (Homo sapiens, UniProt Q12884); experiment: Competitive binding assay against [^111In]In-FAPI-46 in HT-1080.hFAP cells; conditions: 37° C., 1 h
T1 construct: expressed in transfected cells; host or cells: HT-1080.hFAP
T1 sequence (Q12884 1-760): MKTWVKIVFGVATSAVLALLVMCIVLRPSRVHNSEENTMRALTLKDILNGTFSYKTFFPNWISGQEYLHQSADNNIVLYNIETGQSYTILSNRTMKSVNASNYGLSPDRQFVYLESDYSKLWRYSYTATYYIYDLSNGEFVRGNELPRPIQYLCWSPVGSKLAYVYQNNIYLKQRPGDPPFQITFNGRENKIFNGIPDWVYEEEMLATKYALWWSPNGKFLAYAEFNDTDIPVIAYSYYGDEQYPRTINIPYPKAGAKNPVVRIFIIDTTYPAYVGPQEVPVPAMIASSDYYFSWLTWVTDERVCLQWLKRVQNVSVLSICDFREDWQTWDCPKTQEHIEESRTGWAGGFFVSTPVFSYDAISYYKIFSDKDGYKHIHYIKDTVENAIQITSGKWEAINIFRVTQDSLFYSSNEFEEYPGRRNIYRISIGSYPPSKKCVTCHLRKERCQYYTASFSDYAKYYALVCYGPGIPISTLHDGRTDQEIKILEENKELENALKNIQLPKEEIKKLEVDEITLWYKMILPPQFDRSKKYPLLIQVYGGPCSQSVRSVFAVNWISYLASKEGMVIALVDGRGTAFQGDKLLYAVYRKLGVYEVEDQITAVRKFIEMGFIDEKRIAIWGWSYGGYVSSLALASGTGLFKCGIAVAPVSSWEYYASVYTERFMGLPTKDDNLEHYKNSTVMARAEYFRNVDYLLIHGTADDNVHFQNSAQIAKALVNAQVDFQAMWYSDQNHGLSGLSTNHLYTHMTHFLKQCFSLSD
Protocol: The U-87 MG glioblastoma was cultured at 37° C. and 5% CO2 in Dulbecco's Modified Eagle Medium (DMEM) supplemented with 10% (v/v) fetal calf serum. HT-1080.hFAP cells were kept in culture in DMEM medium supplemented with fetal bovine serum (10%, FBS) and antibiotic antimycotic (1%, AA) at 37° C. and 5% CO2. For passaging, cells were detached using Trypsin-EDTA 0.05% when reaching 90% confluence and re-seeded at a dilution of 1:4.
Competition binding experiments were conducted by incubation of the [^111In]In-FAPI-46 radioligand with increasing concentrations of eFAP compound in HT-1080.hFAP cells at 37° C. for 1 h. Cells were then washed three times with binding buffer and lysed. The cell-associated radioactivity was measured in a γ-counter. The IC50 values were calculated by fitting the data by non-linear regression using GraphPad Prism.
Results with FABI-46 obtained in the same assay is included for comparison.

N#C[C@@H]1CC(F)(F)CN1C(=O)CNC(=O)c1ccnc2ccccc12 [UAMC-1110]
affinity to FAP (in words) (FAP [1]): nanomolar affinity to FAP

CN(CCCN1CCN(C(=O)CN2CCN(CC(=O)O)CCN(CC(=O)O)CCN(CC(=O)O)CC2)CC1)c1ccc2nccc(C(=O)NCC(=O)N3CC(F)(F)C[C@H]3C#N)c2c1 [FAPI-46]
tumor-to-organ ratios (in words) [2]: improved tumor-to-organ ratios

N#C[C@@H]1CC(F)(F)CN1C(=O)CNC(=O)c1ccnc2c(OCCCNC(=O)CN3CCN(CC(=O)O)CCN(CC(=O)O)CCN(CC(=O)O)CC3)cccc12 [eFAP-6, (S)-2,2′,2″-(10-(2-((3-((4-((2-(2-Cyano-4,4-difluoropyrrolidin-1-yl)-2-oxoethyl)carbamoyl)quinolin-8-yl)oxy)propyl)amino)-2-oxoethyl)-1,4,7,10-tetraazacyclododecane-1,4,7-triyl)triacetic acid]
binding affinity for FAP (in words) (FAP [3]): low nano-molar binding affinity for FAP
